Source: ChEMBL document CHEMBL1255527, “Structure-activity relationships of tulipalines, tuliposides, and related compounds as inhibitors of MurA” (Bioorg Med Chem Lett, 2010)
Values after ≈ are worked out from the molar mass of the structure shown. Active and inactive are the calls of the source. No cut-off for these calls is given here.

Key:
Escherichia coli BL21 = test: Inhibition of Escherichia coli MurA; set-up: concentration or dose not given beside the values
[1] = system: Escherichia coli BL21 [C115D]; test: Inhibition of Escherichia coli MurA C115D mutant at 25 uM
Escherichia coli [2] = test: Antimicrobial activity against Escherichia coli BL21 assessed as growth inhibition at 200 uM in presence of minimum medium; format: functional
Escherichia coli [3] = test: Antimicrobial activity against Escherichia coli BL21 assessed as growth inhibition at 200 uM after 24 hrs; format: functional; details: for inhibition at 200 µM: BL21, BL21, 24 h
[4] = Inhibition of Escherichia coli MurA at 25 uM; set-up: species or system Escherichia coli BL21
[5] = Electrophilicity, glutathione reactivity of the compound assessed as half life; format: physicochemical; details: glutathione (reaction with glutathione)
Escherichia coli [6] = test: Antimicrobial activity against Escherichia coli BL21 assessed as growth inhibition at 200 uM in presence of IPTG; format: functional
Escherichia coli [7] = test: Antimicrobial activity against Escherichia coli BL21 after 24 hrs; format: functional; details: BL21, 24 h
Escherichia coli [8] = test: Antimicrobial activity against Escherichia coli BL21 expressing MurA C115D mutant assessed as growth inhibition at 200 uM after 20 hrs in presence of kanamycin and 0.5 mM IPTG; format: functional
Escherichia coli [9] = test: Antimicrobial activity against Escherichia coli BL21 expressing MurA C115D mutant assessed as growth inhibition at 200 uM in presence of kanamycin; format: functional
Escherichia coli [10] = test: Antimicrobial activity against Escherichia coli BL21 expressing MurA C115D mutant assessed as growth inhibition at 200 uM after 20 hrs in presence of kanamycin and 1 mM IPTG; format: functional

inhibition (Escherichia coli BL21; concentration not given here) | inhibition [1] | IC50 [4] | inhibition (Escherichia coli BL21) | Structure (SMILES) | inhibition at 200 µM (Escherichia coli [2]) | inhibition at 200 µM (Escherichia coli [3]) | inhibition (Escherichia coli [2]) | inhibition (Escherichia coli [3]) | half-life [5] | Activity (Escherichia coli [6]) | MBC (Escherichia coli [7]) | MIC (Escherichia coli [7]) | Activity (Escherichia coli [8]) | Activity (Escherichia coli [9]) | Activity (Escherichia coli [10])
74% | inactive | 6.6 µM |  | C=C1C(=O)OC(CO)C1O (centres undefined) | 102% | 26% |  |  |  |  |  |  |  |  | 
11% | inactive |  |  | C=C(CCO)C(=O)O[C@@H]1O[C@H](CO)[C@@H](O)[C@H](O)[C@H]1O |  |  | inactive | inactive |  |  |  |  |  |  | 
77% | 10% | 6.3 µM |  | C=C(C(=O)OC)C(O)C(O)CO (centres undefined) |  | 17% |  |  |  |  |  |  |  |  | 
 | inactive |  | inactive | C=C(CO)C(=O)O |  |  | inactive | inactive | > 60 h |  |  |  |  |  | 
79% | 10% | 4.5 µM |  | C=C(C(=O)OC)C(OC(C)=O)C(O)CO (centres undefined) | 98% | 30% |  |  |  |  |  |  |  |  | 
 | inactive |  | inactive | C=C(CCO)C(=O)O |  |  | inactive |  |  |  |  |  |  |  | 
 | inactive |  | inactive | C=C(C(=O)OC)C(O)C1COC(C)(C)O1 (centres undefined) |  |  | inactive | inactive |  |  |  |  |  |  | 
 | inactive |  | inactive | C=C(CO)C(=O)OC |  |  | inactive | inactive |  |  |  |  |  |  | 
84% | inactive | 5 µM |  | C=C(C(=O)O[C@@H]1O[C@H](CO)[C@@H](O)[C@H](O)[C@H]1O)[C@@H](O)CO [1-TULIPOSIDE B] | 97% | 64% |  |  |  |  | 50 µM (≈ 14.7 µg/mL) | 6.25 µM (≈ 1.84 µg/mL) |  |  | 
 | inactive |  | inactive | C=C(C(=O)O)C(O)C(O)CO (centres undefined) |  |  | inactive | inactive |  |  |  |  |  |  | 

Continued, compound first:

Structure (SMILES) | inhibition (Escherichia coli BL21; concentration not given here) | inhibition [1] | IC50 [4] | inhibition (Escherichia coli BL21) | inhibition at 200 µM (Escherichia coli [2]) | inhibition at 200 µM (Escherichia coli [3]) | inhibition (Escherichia coli [2]) | inhibition (Escherichia coli [3]) | half-life [5] | Activity (Escherichia coli [6]) | MBC (Escherichia coli [7]) | MIC (Escherichia coli [7]) | Activity (Escherichia coli [8]) | Activity (Escherichia coli [9]) | Activity (Escherichia coli [10])
C=C(CBr)C(=O)OC [METHYL BROMOMETHYL ACRYLATE] | 55% | inactive |  |  | 101% | 20% |  |  |  |  |  |  |  |  | 
C=C1CC(CO)OC1=O (centres undefined) | 17% | inactive |  |  | 47% |  |  | inactive |  |  |  |  |  |  | 
C=C1C(=O)OC(CBr)C1O (centres undefined) | 85% | 18% | 10.4 µM |  | 103% | 84% |  |  |  |  |  |  |  |  | 
C=C(CP(=O)(OCC)OCC)C(=O)OC | 20% | inactive |  |  |  |  | inactive | inactive |  |  |  |  |  |  | 
C=C1C(=O)OCC1O (racemic) [(+/-)-TULIPALINE B] | 97% | inactive | 2 µM |  | 93% | 62% |  |  |  | inactive | 200 µM (≈ 22.8 µg/mL) | 12.5 µM (≈ 1.43 µg/mL) | inactive | inactive | inactive
C=C1CC(COC(C)=O)OC1=O (centres undefined) |  | inactive |  | inactive | 74% |  |  | inactive |  |  |  |  |  |  | 
C=C(C(=O)O)C(O)CO (centres undefined) | 87% | inactive | 8.6 µM |  | 100% | 18% |  |  | < 7 h | inactive | 25 µM (≈ 3.3 µg/mL) | 1.56 µM (≈ 0.206 µg/mL) | inactive | inactive | inactive
C=C1CCOC1=O [TULIPALINE A] |  | inactive |  | inactive |  | 5% | inactive |  |  |  |  |  |  |  | 
C=C(CP(=O)(O)O)C(=O)O | 13% | inactive |  |  |  |  | inactive | inactive |  |  |  |  |  |  | 
C[C@@H]1O[C@@H]1P(=O)(O)O [FOSFOMYCIN] | 99% | inactive | 0.1 µM |  | 96% | 100% |  |  | > 60 h | inactive | 200 µM (≈ 27.6 µg/mL) | 50 µM (≈ 6.9 µg/mL) | Active | inactive | Active
C=C(CP(=O)(O)O)C(=O)OC |  | inactive |  | inactive |  |  | inactive | inactive |  |  |  |  |  |  | 
C=C1C(=O)O[C@@H]2/C=C(\CO)CC/C=C(\C)C[C@H](OC(=O)C(=C)[C@H](O)CO)[C@@H]12 [CNICIN] | 97% | inactive | 16.7 µM |  | 92% | 19% |  |  |  | inactive | 200 µM (≈ 75.7 µg/mL) | 25 µM (≈ 9.46 µg/mL) | inactive | inactive | inactive
